Experimental data as given in ChEMBL document CHEMBL1201862, “PubChem BioAssay data set” (2004).
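The compound was tested at five concentrations on cells cultured in 96-well plates, with a 48-hour exposure period. The concentration for 50% growth inhibition is given as GI50.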 Active and inactive are the calls of the source. Rule as the data show it: active = GI50 up to about 1.1 µM and inactive = higher.

What was measured:
Test in all cases: NCI-60 cell line screen, 48 h
NCI-H226 = tested on: NCI-H226
RXF 631 = tested on: RXF 631
OVCAR-8 = tested on: OVCAR-8
A549 = tested on: A549
MOLT-4 = tested on: MOLT-4
SNB-75 = tested on: SNB-75
HCT-15 = tested on: HCT-15
SW-620 = tested on: SW-620
EKVX = tested on: EKVX
ACHN = tested on: ACHN
M19-MEL = tested on: M19-MEL
XF498 = tested on: XF498
RPMI-8226 = tested on: RPMI-8226
SNB-78 = tested on: SNB-78
HL-60 = tested on: HL-60
HOP-92 = tested on: HOP-92
LOX IMVI = tested on: LOX IMVI
786-0 = tested on: 786-0
HOP-18 = tested on: HOP-18
SF-295 = tested on: SF-295
NCI-H23 = tested on: NCI-H23
Malme-3M = tested on: Malme-3M
SNB-19 = tested on: SNB-19
OVCAR-5 = tested on: OVCAR-5
COLO 205 = tested on: COLO 205
HCC 2998 = tested on: HCC 2998
DLD-1 = tested on: DLD-1
M14 = tested on: M14
OVCAR-3 = tested on: OVCAR-3
KM12 = tested on: KM12
UO-31 = tested on: UO-31
SK-MEL-2 = tested on: SK-MEL-2
SR = tested on: SR
CCRF-CEM = tested on: CCRF-CEM
SK-MEL-28 = tested on: SK-MEL-28
NCI-H522 = tested on: NCI-H522
DMS-114 = tested on: DMS-114
K562 = tested on: K562
SF-268 = tested on: SF-268
RXF 393 = tested on: RXF 393
SN12C = tested on: SN12C
U-251 = tested on: U-251
SF-539 = tested on: SF-539
UACC-257 = tested on: UACC-257
TK-10 = tested on: TK-10
SK-MEL-5 = tested on: SK-MEL-5
UACC-62 = tested on: UACC-62
DMS-273 = tested on: DMS-273
KM-20L2 = tested on: KM-20L2
HT-29 = tested on: HT-29
CAKI-1 = tested on: CAKI-1
NCI-H460 = tested on: NCI-H460
LXFL 529 = tested on: LXFL 529
HOP-62 = tested on: HOP-62
SK-OV-3 = tested on: SK-OV-3
IGROV-1 = tested on: IGROV-1
HCT-116 = tested on: HCT-116
OVCAR-4 = tested on: OVCAR-4

O=C1C2[C@@H](C(=O)N1c1ccc(Br)cc1)C13C(=CC2([N+](=O)[O-])[C@@H]2C(=O)N(c4ccc(Br)cc4)C(=O)[C@@H]21)c1ccccc1N3c1ccccc1 (stereo partly specified)
GI50 (NCI-H226): > 100 µM (inactive) | GI50 (RXF 631): > 100 µM (inactive) | GI50 (OVCAR-8): > 100 µM (inactive) | GI50 (A549): > 100 µM (inactive) | GI50 (MOLT-4): > 100 µM (inactive) | GI50 (SNB-75): > 100 µM (inactive) | GI50 (HCT-15): > 100 µM | GI50 (SW-620): > 100 µM (inactive) | GI50 (EKVX): > 100 µM (inactive) | GI50 (ACHN): > 100 µM (inactive) | GI50 (M19-MEL): > 100 µM (inactive) | GI50 (XF498): 39.3 µM (inactive) | GI50 (RPMI-8226): > 100 µM (inactive) | GI50 (SNB-78): > 100 µM (inactive) | GI50 (HL-60): > 100 µM (inactive) | GI50 (HOP-92): > 100 µM (inactive) | GI50 (LOX IMVI): > 100 µM (inactive) | GI50 (786-0): 13.7 µM (inactive) | GI50 (HOP-18): > 100 µM (inactive) | GI50 (SF-295): > 100 µM (inactive) | GI50 (NCI-H23): > 100 µM (inactive) | GI50 (Malme-3M): > 100 µM (inactive) | GI50 (SNB-19): > 100 µM (inactive) | GI50 (OVCAR-5): > 100 µM (inactive) | GI50 (COLO 205): 25.8 µM (inactive) | GI50 (HCC 2998): > 100 µM (inactive) | GI50 (DLD-1): > 100 µM (inactive) | GI50 (M14): > 100 µM (inactive) | GI50 (OVCAR-3): > 100 µM (inactive) | GI50 (KM12): > 100 µM (inactive) | GI50 (UO-31): 18.9 µM (inactive) | GI50 (SK-MEL-2): > 100 µM (inactive) | GI50 (SR): 83 µM (inactive) | GI50 (CCRF-CEM): 46.7 µM (inactive) | GI50 (SK-MEL-28): > 100 µM (inactive) | GI50 (NCI-H522): > 100 µM (inactive) | GI50 (DMS-114): > 100 µM (inactive) | GI50 (K562): > 100 µM (inactive) | GI50 (SF-268): 11.6 µM (inactive) | GI50 (RXF 393): > 100 µM (inactive) | GI50 (SN12C): > 100 µM (inactive) | GI50 (U-251): > 100 µM (inactive) | GI50 (SF-539): > 100 µM (inactive) | GI50 (UACC-257): > 100 µM (inactive) | GI50 (TK-10): > 100 µM (inactive)

Cc1ccccc1-c1cc(=O)c2cc(C)c(C)c(C(=O)O)c2o1
GI50 (NCI-H226): > 100 µM (inactive) | GI50 (RXF 631): > 100 µM (inactive) | GI50 (OVCAR-8): > 100 µM (inactive) | GI50 (A549): > 100 µM (inactive) | GI50 (MOLT-4): > 100 µM (inactive) | GI50 (SNB-75): > 100 µM (inactive) | GI50 (HCT-15): > 100 µM | GI50 (SK-MEL-5): > 100 µM (inactive) | GI50 (SW-620): > 100 µM (inactive) | GI50 (EKVX): > 100 µM (inactive) | GI50 (UACC-62): > 100 µM (inactive) | GI50 (ACHN): > 100 µM (inactive) | GI50 (M19-MEL): > 100 µM (inactive) | GI50 (XF498): 71.1 µM (inactive) | GI50 (RPMI-8226): > 100 µM (inactive) | GI50 (SNB-78): > 100 µM (inactive) | GI50 (DMS-273): > 100 µM (inactive) | GI50 (HL-60): > 100 µM (inactive) | GI50 (KM-20L2): > 100 µM (inactive) | GI50 (HOP-92): > 100 µM (inactive) | GI50 (LOX IMVI): > 100 µM (inactive) | GI50 (HT-29): > 100 µM (inactive) | GI50 (786-0): > 100 µM (inactive) | GI50 (HOP-18): > 100 µM (inactive) | GI50 (CAKI-1): > 100 µM (inactive) | GI50 (SF-295): > 100 µM (inactive) | GI50 (NCI-H23): > 100 µM (inactive) | GI50 (Malme-3M): > 100 µM (inactive) | GI50 (SNB-19): > 100 µM (inactive) | GI50 (OVCAR-5): > 100 µM (inactive) | GI50 (NCI-H460): > 100 µM (inactive) | GI50 (COLO 205): > 100 µM (inactive) | GI50 (LXFL 529): > 100 µM (inactive) | GI50 (HCC 2998): > 100 µM (inactive) | GI50 (HOP-62): > 100 µM (inactive) | GI50 (DLD-1): > 100 µM (inactive) | GI50 (M14): > 100 µM (inactive) | GI50 (OVCAR-3): > 100 µM (inactive) | GI50 (SK-OV-3): > 100 µM (inactive) | GI50 (KM12): > 100 µM (inactive) | GI50 (UO-31): > 100 µM (inactive) | GI50 (IGROV-1): > 100 µM (inactive) | GI50 (SK-MEL-2): > 100 µM (inactive) | GI50 (SR): > 100 µM (inactive) | GI50 (CCRF-CEM): > 100 µM (inactive) | GI50 (HCT-116): > 100 µM (inactive) | GI50 (OVCAR-4): > 100 µM (inactive) | GI50 (SK-MEL-28): > 100 µM (inactive) | GI50 (NCI-H522): > 100 µM (inactive) | GI50 (DMS-114): > 100 µM (inactive) | GI50 (K562): > 100 µM (inactive) | GI50 (SN12C): > 100 µM (inactive) | GI50 (U-251): > 100 µM (inactive) | GI50 (SF-539): > 100 µM (inactive) | GI50 (UACC-257): > 100 µM (inactive) | GI50 (TK-10): > 100 µM (inactive)
